Source: patent publication US20030158041A1, “Methods of and compositions for plant defoliation” (priority 2001, published 2003)

System: American upland cotton
Experiment: Spray treatment of mature American upland cotton, evaluated 10, 14 and 21 days after treatment
Format: in vivo
[1] = 10 days after treatment, (+) EBNG = 0.13 lb/acre
[2] = 14 days after treatment, (+) EBNG = 0.13 lb/acre
[3] = 21 days after treatment, (+) EBNG = 0.13 lbs/acre

CCC(NC(=N)N[N+](=O)[O-])c1ccccc1 (single isomer, unassigned; (+)) [(+) EBNG, (+)-1-(α-ethylbenzyl)-3-nitroguanidine]
% Dead Leaves On Plants [1]: 8.3%
% Dropped Leaves [1]: 90.0%
% Dead Leaves On Plants [2]: 5.7%
% Dropped Leaves [2]: 93.0%
% New Growth Leaves [2]: 1.0%
% Open Fruits [2]: 96.0%
% New Growth Leaves [3]: 3.7%
% Open Fruits [3]: 98.3%
